Measurements: patent US20180303824A1, “Compositions for deterring abuse of pharmaceutical products and alcohol” (priority 2015, published 2018)
Where a name gives a salt, the structure may show the parent alone.

Experiments:
[1] = Electrical conductivity of clay dispersions and drug solutions; type: physicochemical; settings: for Conductivity, Mean / Conductivity, Trial 1 / Conductivity, Trial 2 / Conductivity, Trial 3 / pH, Mean / pH, Trial 1 / pH, Trial 2 / pH, Trial 3: dispersions
[2] = pH 3
Protocol: (§1) Into 10 mL of drug solution (containing 25 mg of tramadol HCl), 50 mg of talc was added and vortexed for 5 seconds followed by centrifugation @1500 rpm for 5 minutes. The solution was filtered through a 0.2 μm syringe filter; 0.5 ml of the supernatant solution was diluted with 10 ml of solvent, and then analyzed for drug concentration by UV spectroscopy @271 nm.
as §1, with “zinc acetate” for “talc”
The solution was filtered through a 0.2 μm syringe filter; 0.5 ml of the supernatant solution was diluted with 10 ml of solvent, and then analyzed for drug concentration by UV spectroscopy @271 nm.

| Structure (SMILES) | Conductivity, Mean [1] | Conductivity, Trial 1 [1] | Conductivity, Trial 2 [1] | Conductivity, Trial 3 [1] | pH, Mean [1] | pH, Trial 1 [1] | pH, Trial 2 [1] | pH, Trial 3 [1] | % Bound [2] | Cond. ([1]; drug solution in 0.1N HCl, 100 μg/mL) | Cond. ([1]; drug solution in 0.1N HCl, 200 μg/mL) | Cond. ([1]; drug solution in 0.1N HCl, 250 μg/mL) | Cond. ([1]; drug solution in 0.1N HCl, 500 μg/mL) | Cond. ([1]; drug solution in 0.1N HCl, 1000 μg/mL) | Cond. ([1]; drug solution in ultrapure deionized water, 100 μg/mL) | Cond. ([1]; drug solution in ultrapure deionized water, 200 μg/mL) | Cond. ([1]; drug solution in ultrapure deionized water, 250 μg/mL) | Cond. ([1]; drug solution in ultrapure deionized water, 500 μg/mL) | Cond. ([1]; drug solution in ultrapure deionized water, 1000 μg/mL) |
| --- | --- | --- | --- | --- | --- | --- | --- | --- | --- | --- | --- | --- | --- | --- | --- | --- | --- | --- | --- |
| O=C([O-])[O-].[Na+].[Na+] [Na2CO3] | −247.7 mV | −247.4 mV | −248.3 mV | −247.5 mV | 11.40 | 11.40 | 11.42 | 11.40 |  |  |  |  |  |  |  |  |  |  |  |
| [Cl-].[Na+] [NaCl] | 40.3 mV | 34.7 mV | 33.6 mV | 52.6 mV | 6.38 | 6.48 | 6.50 | 6.16 |  |  |  |  |  |  |  |  |  |  |  |
| CC(=O)[O-].CC(=O)[O-].[Zn+2] [Zinc Acetate] |  |  |  |  |  |  |  |  | 2.9% |  |  |  |  |  |  |  |  |  |  |
| CN(C)CCOC(c1ccccc1)c1ccccc1 [diphenhydramine HCl] |  |  |  |  |  |  |  |  |  | 334.4 mV | 333.5 mV | 333.2 mV | 333.7 mV | 332.1 mV | 28.2 mV | 24.5 mV | 21.3 mV | 21.3 mV | 31.3 mV |
